Laboratory results: patent US20150359867A1, “OVARIAN CANCER VACCINES AND VACCINATION METHODS” (IMMUNOCELLULAR THERAPEUTICS, LTD., priority 2013, published 2015)

tested on: T2 cells pulsed with CD133 HLA-A2 peptides; test: IFN-γ ELISPOT assay of antigen-specific T cell response; assay type: cell-based, human; details: 1×10^5 CTL co-cultured with 7.5×10^4 T2 cells pulsed with 10 μg/ml of peptides, 20 hours; FIG. 3
Description: To test this hypothesis, effector CD8^+′ T cells were isolated and co-cultured with HLA-A2+ DC pulsed with CD133 peptides to induce antigen-specific CTLs. Antigens-specific T cell responses were evaluated by an IFN-γ ELISPOT assay.
Human monocyte-derived DC was generated using previously described methods. Briefly, monocytes were isolated from PBMC by magnetic immunoselection using EasySep human monocyte enrichment kit (Stem Cell Technologies) in accordance with the manufacturer's instructions and then cultured at […] in 20 ml of GMP CellGenix DC serum-free medium (Cat#20801-0500, Cellgenix) supplemented with 1000 unit/ml of recombinant human GM-CSF (Cat#AF-300-03, Peprotech, Inc) and recombinant human IL-4(Cat#AF-200-04, Peprotech, Inc). Cells were harvested after 3 or 6 days of culture. The DCs were washed and plated in 6-well plates at a concentration of 5×10^6 cells/well IFN-γ (1000 unit/ml) and monophosphoryl lipid A (MPLA, 20-50 μg/ml) was added into the wells to mature the DC for 24 hr or 48 hrs. Prior to some assays, DC was frozen and stored into liquid nitrogen.
In order to evaluate antigen-specific immune responses, CD8^+ T cells were isolated from fresh or frozen apheresis by positive selection using Dynabeads® CD8 Positive Isolation Kit (Life Technologies, Grand Island, N.Y.) and co-cultured with autologous mDC for four weeks. DCs were added weekly. Briefly, mDC was pulsed with synthetic peptides ([…]) for 6-8 hours at 37° C., and then treated with 20 μg/ml Mitomycin C (Sigma-Aldrich, St. Louis, Mo.) for 25 min at 37° C. and 5% CO2. […]
Antigen-specific immune responses were evaluated by the IFN-γ Elispot kit (BD Biosciences) following previously described methods. […] The colored spots, representing cytokine-producing cells, were counted under a dissecting microscope. The results were evaluated by an automated ELISPOT reader system using KS ELISPOT 4.3 software.

Sequence | antigen-specific T cell response: recognition of peptide-pulsed T2 cells by peptide-specific CTLs (IFN-γ ELISPOT)
FLLPALIFAV (listed as Homo sapiens) [CD133p804, CD133 HLA-A2 peptide, position 804-813] | can efficiently recognize T2 pulsed with these antigens and boost the T cell immune response
YLQWIEFSI (listed as Homo sapiens) [CD133p753, CD133 HLA-A2 peptide] | can efficiently recognize T2 pulsed with these antigens and boost the T cell immune response
ILSAFSVYV (listed as Homo sapiens) [CD133p405, CD133 HLA-A2 peptide, position 405-413] | can efficiently recognize T2 pulsed with these antigens and boost the T cell immune response
